From patent US6482982B1, “Halogenated antituberculosis agents” (University of Sciences of Philadelphia, priority 2001, dated 2002)
In brackets after ≈: the same amount, converted by molar mass.

Tests used:
[1] = system: kanamycin-resistant Mycobacterium tuberculosis; test: microbe, parasite or virus in culture; format: cell-based; details: read-out: MIC KM-R
[2] = system: rifampin-resistant Mycobacterium tuberculosis (ATCC 35838); test: microbe, parasite or virus in culture; format: cell-based; details: ATCC35838, Alamar assay
[3] = system: ethambutol-resistant Mycobacterium tuberculosis; test: microbe, parasite or virus in culture; format: cell-based; details: read-out: MIC EMB-R
[4] = system: M. tuberculosis H37Rv; test: MIC determination by Microplate Alamar Blue Assay (MABA) against H37Rv; format: cell-based, Mycobacterium tuberculosis; details: Mycobacterium tuberculosis, H37RV; Alamar assay, confirmatory testing alongside drug-resistant strains; read-out: MIC H37Rv
[5] = system: isoniazid-resistant Mycobacterium tuberculosis (ATCC 35822); test: microbe, parasite or virus in culture; format: cell-based; details: ATCC35822, read-out: MIC INH-R
[6] = system: single-drug resistant M. tuberculosis strains; format: cell-based, Mycobacterium tuberculosis; details: judged from the ratios in Table 5
[7] = system: ciprofloxacin-resistant Mycobacterium tuberculosis; test: microbe, parasite or virus in culture; format: cell-based; details: read-out: MIC CIP-R

Structure (SMILES) | MIC [1] | MIC [2] | MIC [3] | MIC [4] | MIC [5] | cross-resistance with isoniazid, rifampin, ethambutol, kanamycin or ciprofloxacin [6] | MIC [7]
CC(=O)Nc1ccc(/C=N/NC(N)=S)cc1F [Compound 16, 4-Acetamido-3-fluorobenzaldehyde thiosemicarbazone] | ≤ 0.1 µg/mL | ≤ 0.1 µg/mL | 0.2 µg/mL (≈ 0.787 µM) | ≤ 0.1 µg/mL | ≤ 0.1 µg/mL | no cross-resistance | ≤ 0.1 µg/mL
Nc1cc(O)c(C(=O)O)cc1F [Compound 12, 4-Amino-5-fluorosalicylic Acid] | 6.25 µg/mL (≈ 36.5 µM) | 6.25 µg/mL (≈ 36.5 µM) | ≤ 3.13 µg/mL | ≤ 3.13 µg/mL | 25 µg/mL (≈ 146 µM) |  | 6.25 µg/mL (≈ 36.5 µM)
